Results on twelve compounds are retold here after paper PMC5639694 (Journal of medicinal chemistry, 2017).

“Also recorded” adds a separate entry of the source. Square brackets hold non-standard residues; d marks the D form. Peptide text beside a SMILES is read from it. Dap = NC[C@H](N)C(=O)O

Assay [1] deals with mMC4R (Mus musculus, UniProt P56450). In words: AlphaScreen cAMP agonist assay, HEK293 cells stably expressing mMC4R. Particulars: for mMC4R agonist activity/efficacy in words: concentrations up to 100 μM, full agonist = >90% maximal NDP-MSH stimulation. For orientation: Bead proximity is the source of the signal in Alpha formats.
Sequence of mMC4R (P56450 whole entry): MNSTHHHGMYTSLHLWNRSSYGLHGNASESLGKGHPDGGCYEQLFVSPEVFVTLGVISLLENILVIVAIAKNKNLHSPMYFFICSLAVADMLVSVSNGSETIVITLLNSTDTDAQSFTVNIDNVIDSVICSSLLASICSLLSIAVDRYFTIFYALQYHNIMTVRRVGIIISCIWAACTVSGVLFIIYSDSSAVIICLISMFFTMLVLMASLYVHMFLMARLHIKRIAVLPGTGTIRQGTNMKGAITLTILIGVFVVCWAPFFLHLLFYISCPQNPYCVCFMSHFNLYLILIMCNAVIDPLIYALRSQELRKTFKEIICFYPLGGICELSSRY
Assay [2] deals with mMC5R (Mus musculus, UniProt P41149). In words: AlphaScreen cAMP agonist assay, HEK293 cells stably expressing mMC5R. Particulars: for selectivity for the mMC5R over the mMC3R: agonist potency ratio; for mMC5R agonist activity/efficacy in words: concentrations up to 100 μM, full agonist = >90% maximal NDP-MSH stimulation.
Sequence of mMC5R (P41149 whole entry): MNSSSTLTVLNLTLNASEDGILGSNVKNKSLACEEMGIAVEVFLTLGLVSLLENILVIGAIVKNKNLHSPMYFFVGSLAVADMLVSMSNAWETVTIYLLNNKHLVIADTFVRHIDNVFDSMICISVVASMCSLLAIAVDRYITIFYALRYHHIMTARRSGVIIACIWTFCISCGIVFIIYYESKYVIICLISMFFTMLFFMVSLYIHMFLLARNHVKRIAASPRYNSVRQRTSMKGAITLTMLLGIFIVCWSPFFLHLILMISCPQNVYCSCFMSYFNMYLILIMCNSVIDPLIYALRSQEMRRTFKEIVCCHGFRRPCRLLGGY
The target in assay [3] is mMC3R (Mus musculus, UniProt P33033). In words: AlphaScreen cAMP agonist assay, HEK293 cells stably expressing mMC3R. Particulars: for mMC3R partial agonist, percent maximal NDP stimulation: PA, relative to maximal NDP-MSH response; for mMC3R agonist activity/efficacy in words: concentrations up to 100 μM, full agonist = >90% maximal NDP-MSH stimulation.
Sequence of mMC3R (P33033 whole entry): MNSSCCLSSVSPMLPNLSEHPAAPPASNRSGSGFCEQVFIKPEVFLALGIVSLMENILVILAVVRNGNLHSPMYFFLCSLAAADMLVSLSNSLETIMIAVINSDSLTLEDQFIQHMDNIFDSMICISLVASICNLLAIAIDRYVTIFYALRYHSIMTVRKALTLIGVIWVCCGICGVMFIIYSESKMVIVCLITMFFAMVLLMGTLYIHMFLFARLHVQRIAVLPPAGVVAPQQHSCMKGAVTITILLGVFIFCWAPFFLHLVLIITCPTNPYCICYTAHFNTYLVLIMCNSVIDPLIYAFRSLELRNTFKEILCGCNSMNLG
Assay [4] concerns the target mMC1R (Mus musculus, UniProt Q01727). In words: AlphaScreen cAMP agonist assay, HEK293 cells stably expressing mMC1R. Particulars: for mMC1R agonist activity/efficacy in words: full agonist = >90% maximal NDP-MSH stimulation; for selectivity for the mMC1R over the mMC3R: agonist potency ratio.

Sequence of mMC1R (Q01727 whole entry): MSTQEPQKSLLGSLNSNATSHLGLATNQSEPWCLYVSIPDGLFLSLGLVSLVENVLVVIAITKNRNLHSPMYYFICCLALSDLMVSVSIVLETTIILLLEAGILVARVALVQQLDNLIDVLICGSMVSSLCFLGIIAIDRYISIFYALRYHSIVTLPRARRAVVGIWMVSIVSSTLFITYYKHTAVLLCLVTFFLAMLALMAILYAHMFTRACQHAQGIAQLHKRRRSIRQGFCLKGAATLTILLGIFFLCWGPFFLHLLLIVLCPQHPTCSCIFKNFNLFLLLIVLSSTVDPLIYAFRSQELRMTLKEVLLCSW

On to `C[C@@H]1NC(=O)[C@H](CC(N)=O)NC(=O)[C@H](Cc2c[nH]c3ccccc23)NC(=O)[C@H](CCCNC(=N)N)NC(=O)[C@@H](Cc2ccccc2)NC(=O)[C@H](Cc2c[nH]cn2)NC(=O)[C@@H]2CCCN2C(=O)[C@H]2CCCN2C(=O)[C@H](Cc2ccccc2)NC1=O` [Peptide 1, c[Pro-His-DPhe-Arg-Trp-Asn-Ala-Phe-DPro]] (cyclo(H[dF]RWNAF[dP]P)), for which the “mMC4R agonist activity/efficacy in words” value in assay [1] is “full agonists”.

Regarding `C[C@@H]1NC(=O)[C@H](CC(N)=O)NC(=O)[C@H](Cc2c[nH]c3ccccc23)NC(=O)[C@H](CCCNC(=N)N)NC(=O)[C@@H](Cc2ccccc2)NC(=O)[C@H](Cc2c[nH]cn2)NC(=O)[C@@H]2CCCN2C(=O)[C@H]2CCCN2C1=O` [Peptide 2, c[Pro-His-DPhe-Arg-Trp-Asn-Ala-DPro]] (cyclo(PH[dF]RWNA[dP])), the “decreased agonist potency at mMC5R relative to 1” value in assay [2] came to 5 fold. The “mMC3R partial agonist, percent maximal NDP stimulation” value in assay [3] worked out at 85%. Besides, in assay [1], the “decreased agonist potency at mMC4R relative to 1” value stood at 21 fold. Moreover, in assay [4], the “decreased agonist potency at mMC1R relative to 1” value is 34 fold.

In the case of `N=C(N)NCCC[C@@H]1NC(=O)[C@@H](Cc2ccccc2)NC(=O)[C@H](Cc2c[nH]cn2)NC(=O)[C@@H]2CCCN2C(=O)[C@H]2CCCN2C(=O)[C@H](CC(N)=O)NC(=O)[C@H](Cc2c[nH]c3ccccc23)NC1=O` [Peptide 3, c[Pro-His-DPhe-Arg-Trp-Asn-DPro]] (cyclo(PH[dF]RWN[dP])), the “decreased agonist potency at mMC5R relative to 1” value in assay [2] was determined as 37 fold. The “mMC3R partial agonist, percent maximal NDP stimulation” value in assay [3] is reported as 65%. Besides, in assay [1], the “decreased agonist potency at mMC4R relative to 1” value was found to be 120 fold. The “decreased agonist potency at mMC1R relative to 1” value in assay [4] is 140 fold.

For `C[C@@H]1NC(=O)[C@H](CN)NC(=O)[C@H](Cc2c[nH]c3ccccc23)NC(=O)[C@H](CCCNC(=N)N)NC(=O)[C@@H](Cc2ccccc2)NC(=O)[C@H](Cc2c[nH]cn2)NC(=O)[C@@H]2CCCN2C(=O)[C@H]2CCCN2C(=O)[C@H](Cc2ccccc2)NC1=O` [Peptide 4, c[Pro-His-DPhe-Arg-Trp-Dap-Ala-Phe-DPro]] (cyclo(PH[dF]RW[Dap]AF[dP])), the “mMC3R agonist activity/efficacy in words” value in assay [3] is given as “full agonist”. Also, the “mMC4R partial agonist, percent maximal NDP stimulation” value in assay [1] (PA, relative to maximal NDP-MSH response) was determined as 70%. Moreover, in assay [1], the “mMC4R agonist activity/efficacy in words” value is recorded as “partial agonist”. Also, in assay [4], the “mMC1R agonist activity/efficacy in words” value is given as “full agonist” and the “decreased agonist potency at mMC1R relative to 1” value turned out to be 70 fold.

As for `C[C@@H]1NC(=O)[C@H](CN)NC(=O)[C@H](Cc2c[nH]c3ccccc23)NC(=O)[C@H](CCCNC(=N)N)NC(=O)[C@@H](Cc2ccccc2)NC(=O)[C@H](Cc2c[nH]cn2)NC(=O)[C@@H]2CCCN2C(=O)[C@H]2CCCN2C1=O` [Peptide 5, c[Pro-His-DPhe-Arg-Trp-Dap-Ala-DPro]] (cyclo(H[dF]RW[Dap]A[dP]P)), the “selectivity for the mMC5R over the mMC3R” value in assay [2] was over 100 fold. Also, the “mMC4R agonist activity/efficacy in words” value in assay [1] is reported as “fully stimulate; also recorded: full agonists”.

For `N=C(N)NCCC[C@@H]1NC(=O)[C@@H](Cc2ccccc2)NC(=O)[C@H](Cc2c[nH]cn2)NC(=O)[C@@H]2CCCN2C(=O)[C@H]2CCCN2C(=O)[C@H](CN)NC(=O)[C@H](Cc2c[nH]c3ccccc23)NC1=O` [Peptide 6, c[Pro-His-DPhe-Arg-Trp-Dap-DPro]] (cyclo(PH[dF]RW[Dap][dP])), the “selectivity for the mMC5R over the mMC3R” value in assay [2] is recorded as over 100 fold. Also, the “decreased agonist potency at mMC5R relative to 5” value in assay [2] (relative to 5) is listed as 1,100 fold. Moreover, in assay [3], the “mMC3R agonist activity/efficacy in words” value is reported as “partially stimulated”. The “decreased agonist potency at mMC4R relative to 5” value in assay [1] (relative to 5) is given as 590 fold. Further, the “selectivity for the mMC1R over the mMC3R” value in assay [4] was over 100 fold. In addition, in assay [4] (relative to 5), the “decreased agonist potency at mMC1R relative to 5” value is on record as 420 fold.

As for `N=C(N)NCCC[C@@H]1NC(=O)[C@@H](Cc2ccccc2)NC(=O)[C@H](Cc2c[nH]cn2)NC(=O)[C@@H]2CCCN2C(=O)[C@H]2CCCN2C(=O)[C@H](Cc2c[nH]c3ccccc23)NC1=O` [Peptide 7, c[Pro-His-DPhe-Arg-Trp-DPro]] (cyclo(PH[dF]RW[dP])), in assay [3], the “mMC3R agonist activity/efficacy in words” value is given as “partially stimulated”.

In the case of `C[C@@H]1NC(=O)[C@H](CC(N)=O)NC(=O)[C@H](Cc2c[nH]c3ccccc23)NC(=O)[C@H](CCCNC(=N)N)NC(=O)[C@@H](Cc2ccccc2)NC(=O)[C@@H]2CCCN2C(=O)[C@H]2CCCN2C(=O)[C@H](Cc2ccccc2)NC1=O` [Peptide 8, c[Pro-DPhe-Arg-Trp-Asn-Ala-Phe-DPro]] (cyclo(P[dF]RWNAF[dP])), in assay [2], the “selectivity for the mMC5R over the mMC3R” value is given as over 1000 fold and the “decreased agonist potency at mMC5R relative to 1” value is reported as 90 fold. The “mMC3R agonist activity/efficacy in words” value in assay [3] is on record as “partially stimulated”. For the same compound, the “selectivity for the mMC4R over the mMC3R” value in assay [1] (agonist potency ratio) was over 300 fold. Further, in assay [1], the “decreased agonist potency at mMC4R relative to 1” value amounted to 90 fold. For the same compound, in assay [4], the “selectivity for the mMC1R over the mMC3R” value was over 100 fold, the “mMC1R agonist activity/efficacy in words” value was “full mMC1R agonists” and the “decreased agonist potency at mMC1R relative to 1” value is listed as 1140 fold.

In the case of `C[C@@H]1NC(=O)[C@H](CC(N)=O)NC(=O)[C@H](Cc2c[nH]c3ccccc23)NC(=O)[C@H](CCCNC(=N)N)NC(=O)[C@@H](Cc2ccccc2)NC(=O)[C@@H]2CCCN2C(=O)[C@H]2CCCN2C1=O` [Peptide 9, c[Pro-DPhe-Arg-Trp-Asn-Ala-DPro]] (cyclo(P[dF]RWNA[dP])), in assay [2], the “selectivity for the mMC5R over the mMC3R” value is recorded as over 1000 fold. Also, the “mMC3R agonist activity/efficacy in words” value in assay [3] was “partially stimulated”. Besides, in assay [4], the “selectivity for the mMC1R over the mMC3R” value is listed as over 100 fold and the “mMC1R agonist activity/efficacy in words” value was “full mMC1R agonists”.

On to `N=C(N)NCCC[C@@H]1NC(=O)[C@@H](Cc2ccccc2)NC(=O)[C@@H]2CCCN2C(=O)[C@H]2CCCN2C(=O)[C@H](CC(N)=O)NC(=O)[C@H](Cc2c[nH]c3ccccc23)NC1=O` [Peptide 10, c[Pro-DPhe-Arg-Trp-Asn-DPro]] (cyclo(P[dF]RWN[dP])), for which, in assay [2], the “mMC5R agonist activity/efficacy in words” value is reported as “partially stimulated”. Also, the “mMC3R agonist activity/efficacy in words” value in assay [3] was “no agonist activity; also recorded: did not possess agonist activity”.

In the case of `C[C@@H]1NC(=O)[C@H](CN)NC(=O)[C@H](Cc2c[nH]c3ccccc23)NC(=O)[C@H](CCCNC(=N)N)NC(=O)[C@@H](Cc2ccccc2)NC(=O)[C@@H]2CCCN2C(=O)[C@H]2CCCN2C(=O)[C@H](Cc2ccccc2)NC1=O` [Peptide 11, c[Pro-DPhe-Arg-Trp-Dap-Ala-Phe-DPro]] (cyclo(P[dF]RW[Dap]AF[dP])), in assay [2], the “mMC5R agonist activity/efficacy in words” value was “full agonist efficacy”. The “mMC3R agonist activity/efficacy in words” value in assay [3] was “partial agonist”. The “mMC4R agonist activity/efficacy in words” value in assay [1] is recorded as “full agonist efficacy”. Besides, the “mMC1R agonist activity/efficacy in words” value in assay [4] was “partial agonist”.

Turning to `N=C(N)NCCC[C@@H]1NC(=O)[C@@H](Cc2ccccc2)NC(=O)[C@@H]2CCCN2C(=O)[C@H]2CCCN2C(=O)[C@H](CN)NC(=O)[C@H](Cc2c[nH]c3ccccc23)NC1=O` [Peptide 13, c[Pro-DPhe-Arg-Trp-Dap-DPro]] (cyclo(P[dF]RW[Dap][dP])), in assay [2], the “mMC5R agonist activity/efficacy in words” value is listed as “no observable activity; also recorded: unable to stimulate; also recorded: no agonist activity”. Moreover, in assay [3], the “mMC3R agonist activity/efficacy in words” value is listed as “no observable activity; also recorded: did not possess agonist activity; also recorded: no agonist activity”. The “mMC4R agonist activity/efficacy in words” value in assay [1] is on record as “partially stimulated”.
